Source: ChEMBL document CHEMBL1201862, “PubChem BioAssay data set” (2004)
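Method: 48-hour compound exposure of cells in 96-well plates, five concentrations, linear interpolation of endpoints. At the GI50, growth is halved.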 Activity calls are given as the source filed them. Cut-off read from the data, not from the text of the source: active = GI50 up to about 1.1 µM and inactive = higher.

Legend:
Experiment in all cases: DTP human tumour cell line panel, 48 h
[1] = test system: KM-20L2
[2] = test system: SNB-78
[3] = test system: M19-MEL
[4] = test system: HOP-18
[5] = test system: RXF 631
[6] = test system: DLD-1
[7] = test system: DMS-114
[8] = test system: XF498
[9] = test system: DMS-273

Measured: GI50

Cc1ncc(CCl)c2c1OC(C)(C)OC2
inactive: [1] > 100 µM | [2] 39.7 µM | [3] 74 µM | [4] 21.1 µM | [5] 30 µM | [6] 50.9 µM | [7] > 100 µM | [8] 78.2 µM

Cn1sc2ccccc2c1=S
inactive: [1] 13.7 µM | [2] 15 µM | [3] 4.59 µM | [4] 11.2 µM | [9] 5.64 µM | [6] 3.07 µM | [7] 2.58 µM | [8] 11.9 µM

COc1ccc(C(=O)c2c(C(C(=O)c3ccc(OC)cc3)C(=O)c3ccc(OC)cc3)n(C(=O)c3ccc(OC)cc3)c3ccccc23)cc1
inactive: [1] > 100 µM | [2] > 100 µM | [3] > 100 µM | [9] > 100 µM | [6] > 100 µM | [7] > 100 µM | [8] > 100 µM

CCCCOC(=O)NC(=O)c1cn(CCCOC(=O)CCCCCCCCC(=O)OCCCn2cc(C(=O)NC(=O)OCCCC)c(=O)n(C)c2=O)c(=O)n(C)c1=O
inactive: [1] > 100 µM | [2] > 100 µM | [3] > 100 µM | [5] > 100 µM | [9] > 100 µM | [6] > 100 µM | [7] > 100 µM | [8] > 100 µM

N=C(N)NCCCC(NCc1c2ccccc2[n+]([O-])c2ccccc12)C(=O)O (configuration not stated)
inactive: [1] 42.9 µM | [2] 66.7 µM | [4] > 100 µM | [5] 59.8 µM | [9] 40.4 µM | [6] 38.8 µM | [7] 26.4 µM

CC(C)=CCC/C(C)=C/Cc1c(O)ccc2c1[nH]c1cc(O)c(C)cc12
inactive: [1] 13.4 µM | [2] > 25 µM | [3] 15.5 µM | [9] 11 µM | [6] 14.1 µM | [7] 13.8 µM | [8] 24.7 µM

Cc1cc(NS(=O)(=O)c2ccc(NC(=O)c3cccn4c(=O)c5ccccc5nc34)cc2)no1
inactive: [1] > 100 µM | [2] > 100 µM | [3] > 100 µM | [4] > 100 µM | [5] > 100 µM | [9] > 100 µM | [6] > 100 µM | [7] > 100 µM | [8] > 100 µM

COc1cc(O)c(C(=O)C2Cc3ccccc32)c(OC)c1 (configuration not stated)
inactive: [1] 65.3 µM | [2] > 100 µM | [4] 34.4 µM | [5] 86.9 µM | [9] 43.4 µM | [6] 46.2 µM | [7] 27.4 µM

Cc1cc(=O)oc2c(C3=NN(C=O)C(c4ccccc4)C3)c(O)ccc12 (configuration not stated)
inactive: [1] > 100 µM | [2] 24.3 µM | [3] > 100 µM | [4] > 100 µM | [5] 25.2 µM | [9] > 100 µM | [6] > 100 µM | [7] > 100 µM | [8] 18.7 µM

CC/C=C/c1cc2c(c3[nH]ccc13)[C@@H](C)CC2C.CC/C=C/c1cc2cc[nH]c2c2c1C(C)C[C@@H]2C.CCc1cc2c(c3[nH]ccc13)[C@@H](C)CC2C (some centres not stated)
inactive: [1] 14.8 µM | [2] 17.2 µM | [3] 18.3 µM | [4] 13.5 µM | [9] 15.4 µM | [6] 13.5 µM | [7] 16.8 µM

Cc1nc(C(=O)O)c2ccccc2n1
inactive: [1] > 100 µM | [2] > 100 µM | [9] > 100 µM | [6] > 100 µM | [7] > 100 µM

CCN(CC)/C(=C\Cl)Nc1ccccn1.[O-][Cl+3]([O-])([O-])O
inactive: [1] > 100 µM | [2] > 100 µM | [3] > 100 µM | [4] > 100 µM | [5] > 100 µM | [9] > 100 µM | [6] > 100 µM | [7] > 100 µM | [8] > 100 µM

CCc1cc(C)cc2[n+]1CC=C2C.[O-][Cl+3]([O-])([O-])[O-]
inactive: [1] > 100 µM | [2] > 100 µM | [3] > 100 µM | [4] 1.72 µM | [9] 92 µM | [6] > 100 µM
